Test results: patent US20200397795A1, “PROPHYLACTIC TREATMENT OF VENOUS THROMBOEMBOLISM” (JANSSEN PHARMACEUTICALS, INC., priority 2019, published 2020)

System: symptomatic VTE and VTE-related death in high-risk, medically ill subjects
Experiment: MARINER (Study 2): efficacy of rivaroxaban vs placebo for 45 days post-hospital discharge
Format: in vivo, human
Design: Primary efficacy outcome, absolute difference vs placebo / Primary efficacy outcome, relative risk reduction vs placebo: concentration or dose not given beside the values
Settings: for Primary efficacy outcome (symptomatic VTE and VTE-related death), n/N (%): CEC adjudicated
Description: The primary objective of Study 2 (MARINER) was to assess the efficacy and safety of rivaroxaban, compared with placebo in the prevention of symptomatic venous thromboembolism (VTE; lower extremity deep vein thrombosis [DVT] and non-fatal pulmonary embolism [PE]) and VTE-related death (death due to PE or death in which PE could not be ruled out as the cause) post-hospital discharge in high-risk, medically ill subjects.
This was a multicenter, prospective, randomized, double-blind, placebo-controlled, event-driven study conducted in multiple geographic regions (North America, South America, Eastern Europe, Western Europe, and Other locations) that evaluated rivaroxaban, compared with placebo, in the prevention of symptomatic VTE events and VTE-related deaths for a period of 45 days post-hospital discharge in high-risk, medically ill subjects. The study consisted of a screening phase, a 45-day double-blind treatment phase, and a 30-day safety follow-up period (which was also the end of study [EOS]). The total duration for a subject who completed the study (including the safety follow-up period) after randomization was 75 (±5) days.
The index hospitalization was at least 3 and no more than 10 consecutive days in duration. […] Subjects received thromboprophylaxis during the index hospitalization with low molecular weight heparin (LMWH) or unfractionated heparin (UFH).
Randomization occurred on the same day or the day after the subject left the hospital, and occurred at the hospital, clinic, or other discharge destination. Eligible subjects were to be randomly assigned (1:1) by strata (by creatinine clearance [CrCl] level [≥30-<50 mL/min versus ≥50 mL/min] and by country) to receive either rivaroxaban or placebo. Subjects with a baseline CrCl of ≥50 mL/min were to receive rivaroxaban 10 mg once daily (QD) or placebo QD. A dose adjustment to rivaroxaban 7.5 mg QD was to be implemented for subjects with a baseline CrCl of ≥30 to <50 mL/min. Study drug started at randomization (Day 1) and continued until Day 45 (inclusive). The subject was assessed 30 days later for safety follow-up.
Criteria for Evaluation: This was a clinical outcomes study. The primary efficacy outcome was the composite of all symptomatic VTE events and VTE-related death from randomization up to Day 45. Secondary efficacy outcomes were: VTE-related death; symptomatic VTE; the composite of symptomatic VTE and ACM; the composite of symptomatic VTE, MI, non-hemorrhagic stroke and CV death; and ACM.
The primary and secondary efficacy outcomes were analyzed based on the time from randomization to the first occurrence in the ITT analysis set and Up-to-Day 45 analysis phase. […] A Cox proportional hazards model, stratified by subjects with CrCl ≥30 to <50 mL/min versus subjects with CrCl ≥50 mL/min, with the treatment (as randomized) as the only covariate was used for each analysis. A 2-sided p-value was reported, and if it was less than the 2-sided alpha of 0.05, then superiority of the study drug was to be declared when the observed survival functions favored rivaroxaban. The point estimate and corresponding 95% confidence interval (CI) for the hazard ratio (HR; rivaroxaban to placebo) were provided based on the Cox proportional hazards model. To control the family-wise type I error rate at alpha of 0.05 (2-sided) in testing for efficacy outcomes, if superiority of rivaroxaban over placebo for the primary efficacy outcome was established, superiority of rivaroxaban over placebo on secondary outcomes was tested sequentially using a closed testing procedure in a hierarchical order, each at alpha of 0.05 (2-sided).

[1] = Up-to-Day 45, ITT, listed as rivaroxaban
[2] = as reported by the investigator

## O=C(NC[C@H]1CN(c2ccc(N3CCOCC3=O)cc2)C(=O)O1)c1ccc(Cl)s1 [Rivaroxaban, 5-chloro-N-({(5S)-2-oxo-3-[4-(3-oxo-4-morpholinyl)phenyl]-1,3,oxazolidin-5-yl}methyl)-2-thiophenecarboxamide]
7.5 mg dose stratum
  Primary efficacy outcome, HR vs placebo: 1.00
  Primary efficacy outcome, RRR vs placebo: 0%
7.5 mg dose stratum, Up-to-Day 45, ITT
  Primary efficacy outcome, incidence: 1.64%
10 mg dose stratum
  Primary efficacy outcome, HR vs placebo: 0.67
  Primary efficacy outcome, RRR vs placebo: 33%
10 mg dose stratum, Up-to-Day 45, ITT
  Primary efficacy outcome, incidence: 0.65%
ITT
  Rehospitalization for symptomatic VTE within 30 days after randomization, HR vs placebo: 0.50
  Rehospitalization for symptomatic VTE within 30 days after randomization, incidence: 0.15%
Up-to-Day 45, ITT
  ACM, event rate: 1.19 100 pt-45 dy
  ACM, hazard ratio (95% CI) vs placebo: 0.80 (0.58, 1.09)
  Composite of symptomatic VTE and ACM, RRR vs placebo: 27%
  Composite of symptomatic VTE and ACM, absolute difference vs placebo: 0.48%
  Composite of symptomatic VTE and ACM, event rate: 1.31 100 pt-45 dy
  Composite of symptomatic VTE and ACM, hazard ratio (95% CI) vs placebo: 0.73 (0.54, 0.97)
  Composite of symptomatic VTE and ACM, n/N (%): 78/6007 (1.30) %
  Composite of symptomatic VTE, MI, non-hemorrhagic stroke and CV death, event rate: 1.58 100 pt-45 dy
  Composite of symptomatic VTE, MI, non-hemorrhagic stroke and CV death, hazard ratio (95% CI) vs placebo: 0.78 (0.60, 1.02)
  Composite of symptomatic VTE, MI, non-hemorrhagic stroke and CV death, n/N (%): 94/6007 (1.56) %
  Death (PE cannot be ruled out), event rate: 0.67 100 pt-45 dy
  Death (PE cannot be ruled out), hazard ratio (95% CI) vs placebo: 0.98 (0.63, 1.51)
  Death (PE cannot be ruled out), n/N (%): 40/6007 (0.67) %
  Death (PE), event rate: 0.05 100 pt-45 dy
  Death (PE), hazard ratio (95% CI) vs placebo: 0.60 (0.14, 2.51)
  Death (PE), n/N (%): 3/6007 (0.05) %
  MI, HR vs placebo: 1.36
  MI, incidence: 0.25%
  Non-hemorrhagic stroke, HR vs placebo: 0.63
  Non-hemorrhagic stroke, incidence: 0.32%
  Primary efficacy outcome, absolute difference vs placebo: 0.27%
  Primary efficacy outcome, event rate: 0.84 100 pt-45 dy
  Primary efficacy outcome, hazard ratio (95% CI) vs placebo: 0.76 (0.52, 1.09)
  Primary efficacy outcome, relative risk reduction vs placebo: 24%
  Symptomatic VTE (lower extremity DVT and non-fatal PE), n/N (%): 11/6007 (0.18) %
  Symptomatic VTE, RRR vs placebo: 56%
  Symptomatic VTE, absolute difference vs placebo: 0.24%
  Symptomatic VTE, event rate: 0.19 100 pt-45 dy
  Symptomatic VTE, hazard ratio (95% CI) vs placebo: 0.44 (0.22, 0.89)
  Symptomatic lower extremity DVT, RRR vs placebo: 69%
  Symptomatic lower extremity DVT, absolute difference vs placebo: 0.15%
  Symptomatic lower extremity DVT, event rate: 0.07 100 pt-45 dy
  Symptomatic lower extremity DVT, hazard ratio (95% CI) vs placebo: 0.31 (0.10, 0.94)
  Symptomatic lower extremity DVT, n/N (%): 4/6007 (0.07) %
  Symptomatic non-fatal PE, event rate: 0.12 100 pt-45 dy
  Symptomatic non-fatal PE, hazard ratio (95% CI) vs placebo: 0.47 (0.19, 1.14)
  Symptomatic non-fatal PE, n/N (%): 7/6007 (0.12) %
  Symptomatic upper extremity DVT, number (and incidence): no subject
  VTE-related death, event rate: 0.72 100 pt-45 dy
  VTE-related death, hazard ratio (95% CI) vs placebo: 0.93 (0.62, 1.42)
  VTE-related death, n/N (%): 43/6007 (0.72) %
  Primary efficacy outcome (symptomatic VTE and VTE-related death), n/N (%): 50/6007 (0.83) %
[1]
  Primary efficacy outcome (symptomatic VTE and VTE-related death), n/N (%): 0.83%
  ACM, hazard ratio (95% CI) vs placebo: 0.80
  ACM, n/N (%): 1.18%
  Composite of symptomatic VTE and ACM, hazard ratio (95% CI) vs placebo: 0.73
  Composite of symptomatic VTE and ACM, n/N (%): 1.30%
  Composite of symptomatic VTE, MI, non-hemorrhagic stroke and CV death, hazard ratio (95% CI) vs placebo: 0.78
  Composite of symptomatic VTE, MI, non-hemorrhagic stroke and CV death, n/N (%): 1.56%
  Primary efficacy outcome, hazard ratio (95% CI) vs placebo: 0.76
  Symptomatic VTE (lower extremity DVT and non-fatal PE), n/N (%): 0.18%
  Symptomatic VTE, hazard ratio (95% CI) vs placebo: 0.44
  Symptomatic lower extremity DVT, hazard ratio (95% CI) vs placebo: 0.31
  Symptomatic lower extremity DVT, n/N (%): 0.07%
  Symptomatic non-fatal PE, hazard ratio (95% CI) vs placebo: 0.47
  Symptomatic non-fatal PE, n/N (%): 0.12%
  VTE-related death, hazard ratio (95% CI) vs placebo: 0.93
  VTE-related death, n/N (%): 0.72%
[2]
  Primary efficacy outcome, HR vs placebo: 0.40
  Primary efficacy outcome, RRR vs placebo: 60%
  Primary efficacy outcome, absolute difference vs placebo: 0.37%
As reported by the investigator (post-hoc sensitivity analysis)
  Primary efficacy outcome, incidence: 0.25%
